These results are taken from ChEMBL document CHEMBL1153175, “Pyrazole derived from (+)-3-carene; a novel potent, selective scaffold for sphingosine-1-phosphate (S1P(1)) receptor agonists” (Bioorg Med Chem Lett, 2010).

By Emax is commonly meant the size of the effect at its maximum, as opposed to the concentration needed. The term EC50 denotes the concentration at which the effect is half-maximal. Read a low EC50 as a more potent agent. In general, half-life refers to the time needed for the level to fall by half in the phase considered.

The source made the active and inactive calls. A value given as a limit tells only on which side of the number the result lay.

Data set [1] deals with Rattus norvegicus. Put plainly: Reduction of lymphocytes count in Lewis rat blood at 3 mg/kg. po. The arrangement: dose 3 mg/kg. It is filed as functional, organism-based.
The target of data set [2] is T1, Sphingosine 1-phosphate receptor 3 (Homo sapiens, UniProt Q99500). The experiment in a line: Agonist activity at human SIP3 receptor at 10 uM by [35S]GTPgammaS binding assay relative to S1P. The format is functional. Background: GTPγS resists hydrolysis and so accumulates on activated G proteins.
The subject of data set [3] is Rattus norvegicus. The experiment in a line: Reduction of lymphocytes count in Lewis rat blood at 0.3 mg/kg. iv. The arrangement: dose 0.3 mg/kg. It is filed as functional, organism-based.
In data set [4] the target is T2, Sphingosine 1-phosphate receptor 4 (Homo sapiens, UniProt O95977).
T2 sequence (O95977 whole entry): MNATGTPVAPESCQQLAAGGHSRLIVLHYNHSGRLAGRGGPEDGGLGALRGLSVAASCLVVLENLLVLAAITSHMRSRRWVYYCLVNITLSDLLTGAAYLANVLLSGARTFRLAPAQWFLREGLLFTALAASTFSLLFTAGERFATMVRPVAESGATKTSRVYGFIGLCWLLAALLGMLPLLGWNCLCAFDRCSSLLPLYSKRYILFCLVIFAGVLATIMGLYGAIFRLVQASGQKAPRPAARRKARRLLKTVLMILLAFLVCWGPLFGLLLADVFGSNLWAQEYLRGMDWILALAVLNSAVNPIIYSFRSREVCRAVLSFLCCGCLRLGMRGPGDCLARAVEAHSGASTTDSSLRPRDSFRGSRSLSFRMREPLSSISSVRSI
Put plainly: Agonist activity at human SIP4 receptor by [35S]GTPgammaS binding assay. It is filed as functional.

For data set [5], the species on record is Homo sapiens. The experiment in a line: Selectivity ratio, EC50 for human S1P1 receptor over EC50 for human S1P5 receptor.
In data set [6] the target is T3, Sphingosine 1-phosphate receptor 1 (Homo sapiens, UniProt P21453). Put plainly: Agonist activity at human SIP1 receptor expressed in CHO cells by [35S]GTPgammaS binding assay. The format is functional, cell-based.
The target of data set [7] is T4, Sphingosine 1-phosphate receptor 4 (Homo sapiens) (UniProt O95977).
T4 sequence (whole entry): T2 sequence (O95977 whole entry)
Put plainly: Agonist activity at human SIP4 receptor at 10 uM by [35S]GTPgammaS binding assay relative to S1P. The format is functional.

In data set [8] the target is T1, Sphingosine 1-phosphate receptor 3. The experiment in a line: Agonist activity at human SIP3 receptor by [35S]GTPgammaS binding assay. The format is functional.
Data set [9] has as its target T3, Sphingosine 1-phosphate receptor 1. The settings on record: CHO, at 10 µM.
Description: Agonist activity at human SIP1 receptor expressed in CHO cells at 10 uM by [35S]GTPgammaS binding assay relative to S1P
Data set [10] is filed under the species Homo sapiens. The experiment in a line: Selectivity ratio, EC50 for human S1P1 receptor over EC50 for human S1P4 receptor.
Data set [11] has as its target T5, Sphingosine 1-phosphate receptor 5 (Homo sapiens, UniProt Q9H228). Put plainly: Agonist activity at human SIP5 receptor at 10 uM by [35S]GTPgammaS binding assay relative to S1P. It is filed as functional.
Data set [12] addresses T5, Sphingosine 1-phosphate receptor 5. Put plainly: Agonist activity at human SIP5 receptor by [35S]GTPgammaS binding assay. It is filed as functional.
A short description of data set [13]: Chemical stability at pH >7 assessed as half life. The format is physicochemical.

T5 sequence (Q9H228 whole entry): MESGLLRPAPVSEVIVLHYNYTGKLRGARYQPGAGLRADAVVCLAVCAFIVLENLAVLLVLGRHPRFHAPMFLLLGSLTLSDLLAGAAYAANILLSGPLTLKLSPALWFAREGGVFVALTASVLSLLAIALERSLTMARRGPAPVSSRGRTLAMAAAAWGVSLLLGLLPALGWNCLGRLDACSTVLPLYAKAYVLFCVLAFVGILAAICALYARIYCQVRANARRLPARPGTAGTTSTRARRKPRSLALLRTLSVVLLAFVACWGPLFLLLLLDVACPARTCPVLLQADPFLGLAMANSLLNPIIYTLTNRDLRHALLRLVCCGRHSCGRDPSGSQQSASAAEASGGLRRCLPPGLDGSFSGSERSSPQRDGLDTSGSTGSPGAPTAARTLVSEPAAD
T3 sequence (P21453 whole entry): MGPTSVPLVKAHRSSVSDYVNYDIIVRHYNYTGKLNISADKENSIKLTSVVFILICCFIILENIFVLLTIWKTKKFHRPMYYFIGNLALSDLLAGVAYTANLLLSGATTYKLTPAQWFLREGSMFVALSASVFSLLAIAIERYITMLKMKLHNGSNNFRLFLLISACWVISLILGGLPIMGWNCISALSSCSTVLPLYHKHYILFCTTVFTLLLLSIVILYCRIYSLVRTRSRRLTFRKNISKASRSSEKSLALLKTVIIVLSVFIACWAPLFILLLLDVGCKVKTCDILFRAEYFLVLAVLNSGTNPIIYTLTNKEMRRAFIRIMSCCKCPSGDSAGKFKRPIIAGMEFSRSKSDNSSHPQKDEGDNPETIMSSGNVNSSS
T1 sequence (Q99500 whole entry): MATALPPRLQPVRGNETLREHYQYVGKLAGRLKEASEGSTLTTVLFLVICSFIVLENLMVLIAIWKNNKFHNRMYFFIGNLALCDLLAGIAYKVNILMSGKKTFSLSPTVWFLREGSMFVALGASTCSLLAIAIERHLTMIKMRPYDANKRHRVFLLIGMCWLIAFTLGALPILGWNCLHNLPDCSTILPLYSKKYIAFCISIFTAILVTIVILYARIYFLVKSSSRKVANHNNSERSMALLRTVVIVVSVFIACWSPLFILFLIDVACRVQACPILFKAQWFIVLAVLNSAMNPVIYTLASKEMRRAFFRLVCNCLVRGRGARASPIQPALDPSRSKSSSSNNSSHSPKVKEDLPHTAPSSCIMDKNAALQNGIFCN

Take `Cc1nn(C(=O)/C=C/c2cccc3[nH]ccc23)c2c1[C@H]1[C@@H](C2)C1(C)C`: the result with Rattus norvegicus [1] and with Rattus norvegicus [3] was inactive. Besides, the Emax is 84% in [2], 28% in data set [7], 90% in data set [9] and 130% in data set [11]. The half-maximal effective concentration (EC50) in [4] is 560 nM; in [6], 2 nM; in data set [8] it was 995 nM; in data set [12], 505 nM. Besides, the Ratio EC50 in the data set filed under Homo sapiens [5] and in the data set filed under Homo sapiens [10] was 250 throughout.
For `Cc1nn(C(=O)/C=C/c2ccccc2Cl)c2c1[C@H]1[C@@H](C2)C1(C)C`, the Emax is 69% in data set [2], -19% in data set [7], 89% in data set [9] and -19% in data set [11]. The EC50 was more than 10000 nM in data set [4], 16 nM in data set [6], more than 1000 nM in [8] and more than 10000 nM in [12].
As for `Cc1nn(C(=O)/C=C/c2cccc(C(F)(F)F)c2)c2c1[C@H]1[C@@H](C2)C1(C)C`, the Emax turned out to be 46% in data set [2], 17% in data set [7], 65% in [9] and 56% in data set [11]. Besides, the EC50 in [4] was more than 10000 nM; in [6], 26 nM; in [8] it was more than 10000 nM; in data set [12], 325 nM.
As to `Cc1nn(C(=O)/C=C/C2CCCCC2)c2c1[C@H]1[C@@H](C2)C1(C)C`, the Emax in data set [2] came out at 3%; in data set [7] it was 15%; in [9], 18%; in data set [11], 29%. The EC50 in [4], in data set [6], in [8] and in data set [12] was more than 10000 nM throughout.
Take `Cc1nn(C(=O)/C=C/c2ccc(-c3ccccc3)cc2)c2c1[C@H]1[C@@H](C2)C1(C)C`: the Emax in [2] was 8%; in data set [7] it was 1%; in data set [9], 76%; in data set [11], 22%. Besides, the EC50 in data set [4] was more than 10000 nM; in data set [6], 280 nM; in [8] it was more than 10000 nM; in data set [12], more than 10000 nM.
As to `COc1ccc(/C=C/C(=O)n2nc(C)c3c2C[C@@H]2[C@H]3C2(C)C)cc1OC`, the Emax in data set [2] stood at 46%; in data set [7], 30%; in [9] it was 89%; in data set [11] it was 80%. The EC50 is more than 10000 nM in data set [4], 25 nM in data set [6], more than 10000 nM in [8] and 900 nM in [12].
For `Cc1nn(C/C=C/c2ccccc2)c2c1[C@H]1[C@@H](C2)C1(C)C`, the Emax in data set [2] was 14%; in [7], 10%; in data set [9], 45%; in [11], 10%. Also, the EC50 in data set [4], in [6], in data set [8] and in data set [12] was more than 10000 nM each time.
Consider `Cc1nn(S(=O)(=O)/C=C/c2ccccc2)c2c1[C@H]1[C@@H](C2)C1(C)C`, for which the Emax was -2% in [2], -19% in data set [7], 7% in data set [9] and -1% in [11]. Besides, the EC50 in [4], in data set [6], in data set [8] and in data set [12] was more than 10000 nM in each case.
Consider `CCCCCCC(=O)n1nc(C)c2c1C[C@@H]1[C@H]2C1(C)C`, for which the Emax in [2] was 44%; in [7], -6%; in data set [9] it was 25%; in data set [11] it was 2%. The EC50 in data set [4], in data set [6], in data set [8] and in data set [12] was more than 10000 nM each time.
For the molecule `Cc1nn(C(=O)/C=C/c2ccc(S(N)(=O)=O)cc2)c2c1[C@H]1[C@@H](C2)C1(C)C`, the Emax in [2] is 68%; in data set [7], -22%; in data set [9], 68%; in data set [11], 16%. In addition, the EC50 is more than 10000 nM in data set [4], 119 nM in [6], more than 1000 nM in data set [8] and more than 10000 nM in [12].
For the molecule `Cc1nn(C(=O)/C=C/c2cccnc2)c2c1[C@H]1[C@@H](C2)C1(C)C`, the Emax in data set [2] was 61%; in data set [7] it was 30%; in data set [9] it was 90%; in data set [11], 87%. The EC50 in [4] is 100 nM; in data set [6], 17 nM; in data set [8] it was more than 1000 nM; in [12] it was 345 nM.
As for `Cc1nn(C(=O)/C=C/c2ccccc2)c2c1[C@H]1[C@@H](C2)C1(C)C`, the Emax in [2] was 94%; in data set [7], -2%; in [11], 90%. Besides, the figures for the EC50 in [4], in data set [8] and in data set [12] were more than 10000 nM, more than 1000 nM and 1760 nM, respectively.
With `Cc1nn(C(=O)/C=C/c2cccc(S(N)(=O)=O)c2)c2c1[C@H]1[C@@H](C2)C1(C)C`, the Emax was 84% in data set [2], 21% in data set [7], 92% in data set [9] and 76% in data set [11]. Also, the EC50 in data set [4] turned out to be 116 nM; in [6], 11 nM; in data set [8], 1350 nM; in [12] it was 82 nM.
Consider `Cc1nn(C(=O)/C=C/c2ccncc2)c2c1[C@H]1[C@@H](C2)C1(C)C`, for which the outcome in the data set with Rattus norvegicus [1] and in the data set with Rattus norvegicus [3] was inactive. Moreover, the Emax in [2] was found to be 83%; in [7], 32%; in [9] it was 92%; in data set [11], 93%. For the same molecule, in [13], the half-life was 3 h. The concentration giving a half-maximal response (EC50) in data set [4] was 100 nM; in [6], 7 nM; in [8] it was 345 nM; in [12] it was 130 nM.
`Cc1nn(C(=O)CCc2ccccc2)c2c1[C@H]1[C@@H](C2)C1(C)C`: the Emax in [2] was determined as 38%; in data set [7] it was 0%; in [9], 55%; in [11] it was 26%. In addition, the EC50 in data set [4] was more than 10000 nM; in data set [6], 86 nM; in data set [8], more than 10000 nM; in data set [12], more than 10000 nM.
